ChEMBL document CHEMBL3885881, “DrugMatrix”

Species on record: Rattus norvegicus
Test: DrugMatrix - Regimen: Daily Repeat
Type: toxicity, organism-based, Sprague-Dawley
Design: regimen Daily Repeat, gender Male, age 6-8 weeks
Conditions: in vivo, po, route oral GAVAGE, […]; for ABSOLUTE BASOPHIL / ABSOLUTE EOSINOPHIL / ABSOLUTE LYMPHOCYTE / ABSOLUTE MONOCYTE / ABSOLUTE SEGMENTED NEUTROPHIL / BASOPHIL / EOSINOPHIL / ERYTHROCYTE COUNT / HEMATOCRIT / HEMOGLOBIN / LEUKOCYTE COUNT / LYMPHOCYTE / MEAN CORPUSCULAR HEMOGLOBIN / MEAN CORPUSCULAR HEMOGLOBIN CONCENTRATION / MEAN CORPUSCULAR VOLUME / MONOCYTE / NEUTROPHIL / NUCLEATED RED BLOOD CELLS / PLATELET COUNT: tissue Blood; for ALANINE AMINOTRANSFERASE / ALBUMIN / ALKALINE PHOSPHATASE / ASPARTATE AMINOTRANSFERASE / BLOOD UREA NITROGEN / CARBON DIOXIDE / CHLORIDE / CHOLESTEROL / CREATINE PHOSPHOKINASE / CREATININE / GLUCOSE / LACTATE DEHYDROGENASE / LIPASE / PHOSPHORUS / POTASSIUM / SODIUM / TOTAL BILIRUBIN / TOTAL PROTEIN / URIC ACID: tissue Plasma
[1] = 0 mg/kg, 72 h, dose level Control, time 3 day
[2] = 0 mg/kg, 120 h, dose level Control, time 5 day
[3] = 13 mg/kg, 72 h, dose level Low, time 3 day
[4] = 13 mg/kg, 120 h, dose level Low, time 5 day

CC1=C(/C=C/C(C)=C/C=C/C(C)=C\C(=O)O)C(C)(C)CCC1 [ISOTRETINOIN]
ABSOLUTE BASOPHIL [1]: 0 CELLS/uL | ABSOLUTE EOSINOPHIL [1]: 0 CELLS/uL | ABSOLUTE LYMPHOCYTE [1]: 8493 CELLS/uL | ABSOLUTE MONOCYTE [1]: 127 CELLS/uL | ABSOLUTE SEGMENTED NEUTROPHIL [1]: 896.67 CELLS/uL | BASOPHIL [1]: 0% | EOSINOPHIL [1]: 0% | ERYTHROCYTE COUNT [1]: 5.53 x10E6/uL | HEMATOCRIT [1]: 34.07% | HEMOGLOBIN [1]: 13.28 G/DL | LEUKOCYTE COUNT [1]: 9.52 x10E3/uL | LYMPHOCYTE [1]: 89.17% | MEAN CORPUSCULAR HEMOGLOBIN [1]: 24.07 pg | MEAN CORPUSCULAR HEMOGLOBIN CONCENTRATION [1]: 39.03 G/DL | MEAN CORPUSCULAR VOLUME [1]: 61.62 fL | MONOCYTE [1]: 1.33% | NEUTROPHIL [1]: 9.5% | NUCLEATED RED BLOOD CELLS [1]: 0.17 /100WBC | PLATELET COUNT [1]: 1054.17 x10E3/uL | ALANINE AMINOTRANSFERASE [1]: 77.67 u/L | ALBUMIN [1]: 4.08 G/DL | ALKALINE PHOSPHATASE [1]: 404.5 u/L | ASPARTATE AMINOTRANSFERASE [1]: 83.17 u/L | BLOOD UREA NITROGEN [1]: 14.33 mg/dL | CARBON DIOXIDE [1]: 33.17 mmol/L | CHLORIDE [1]: 101 MEQ/L | CHOLESTEROL [1]: 76.33 mg/dL | CREATINE PHOSPHOKINASE [1]: 184.5 u/L | CREATININE [1]: 0.13 mg/dL | GLUCOSE [1]: 163.67 mg/dL | LACTATE DEHYDROGENASE [1]: 130.33 u/L | LIPASE [1]: 11 u/L | PHOSPHORUS [1]: 9.27 mg/dL | POTASSIUM [1]: 6.26 MEQ/L | SODIUM [1]: 143.57 MEQ/L | TOTAL BILIRUBIN [1]: 0.18 mg/dL | TOTAL PROTEIN [1]: 5.82 G/DL | URIC ACID [1]: 1.38 mg/dL | ABSOLUTE BASOPHIL [2]: 0 CELLS/uL | ABSOLUTE EOSINOPHIL [2]: 0 CELLS/uL | ABSOLUTE LYMPHOCYTE [2]: 8546.17 CELLS/uL | ABSOLUTE MONOCYTE [2]: 49.5 CELLS/uL | ABSOLUTE SEGMENTED NEUTROPHIL [2]: 554.33 CELLS/uL | BASOPHIL [2]: 0% | EOSINOPHIL [2]: 0% | ERYTHROCYTE COUNT [2]: 5.36 x10E6/uL | HEMATOCRIT [2]: 33.38% | HEMOGLOBIN [2]: 13.2 G/DL | LEUKOCYTE COUNT [2]: 9.15 x10E3/uL | LYMPHOCYTE [2]: 93.17% | MEAN CORPUSCULAR HEMOGLOBIN [2]: 24.68 pg | MEAN CORPUSCULAR HEMOGLOBIN CONCENTRATION [2]: 39.58 G/DL | MEAN CORPUSCULAR VOLUME [2]: 62.38 fL | MONOCYTE [2]: 0.5% | NEUTROPHIL [2]: 6.33% | NUCLEATED RED BLOOD CELLS [2]: 0.17 /100WBC | PLATELET COUNT [2]: 1099.33 x10E3/uL | ALANINE AMINOTRANSFERASE [2]: 62.33 u/L | ALBUMIN [2]: 4.1 G/DL | ALKALINE PHOSPHATASE [2]: 419 u/L | ASPARTATE AMINOTRANSFERASE [2]: 83.17 u/L | BLOOD UREA NITROGEN [2]: 15.5 mg/dL | CARBON DIOXIDE [2]: 33.17 mmol/L | CHLORIDE [2]: 98 MEQ/L | CHOLESTEROL [2]: 58.33 mg/dL | CREATINE PHOSPHOKINASE [2]: 393.17 u/L | CREATININE [2]: 0.18 mg/dL | GLUCOSE [2]: 163 mg/dL | LACTATE DEHYDROGENASE [2]: 111.5 u/L | LIPASE [2]: 9.5 u/L | PHOSPHORUS [2]: 10.02 mg/dL | POTASSIUM [2]: 5.73 MEQ/L | SODIUM [2]: 143.65 MEQ/L | TOTAL BILIRUBIN [2]: 0.2 mg/dL | TOTAL PROTEIN [2]: 5.85 G/DL | URIC ACID [2]: 0.78 mg/dL | ABSOLUTE BASOPHIL [3]: 0 CELLS/uL | ABSOLUTE EOSINOPHIL [3]: 0 CELLS/uL | ABSOLUTE LYMPHOCYTE [3]: 5796.67 CELLS/uL | ABSOLUTE MONOCYTE [3]: 69.67 CELLS/uL | ABSOLUTE SEGMENTED NEUTROPHIL [3]: 533.67 CELLS/uL | BASOPHIL [3]: 0% | EOSINOPHIL [3]: 0% | ERYTHROCYTE COUNT [3]: 5.14 x10E6/uL | HEMATOCRIT [3]: 32.4% | HEMOGLOBIN [3]: 12.5 G/DL | LEUKOCYTE COUNT [3]: 6.4 x10E3/uL | LYMPHOCYTE [3]: 90.67% | MEAN CORPUSCULAR HEMOGLOBIN [3]: 24.33 pg | MEAN CORPUSCULAR HEMOGLOBIN CONCENTRATION [3]: 38.63 G/DL | MEAN CORPUSCULAR VOLUME [3]: 63.07 fL | MONOCYTE [3]: 1% | NEUTROPHIL [3]: 8.33% | NUCLEATED RED BLOOD CELLS [3]: 0 /100WBC | PLATELET COUNT [3]: 977.33 x10E3/uL | ALANINE AMINOTRANSFERASE [3]: 80.33 u/L | ALBUMIN [3]: 3.7 G/DL | ALKALINE PHOSPHATASE [3]: 427.67 u/L | ASPARTATE AMINOTRANSFERASE [3]: 93.33 u/L | BLOOD UREA NITROGEN [3]: 12 mg/dL | CARBON DIOXIDE [3]: 35 mmol/L | CHLORIDE [3]: 101.33 MEQ/L | CHOLESTEROL [3]: 70.33 mg/dL | CREATINE PHOSPHOKINASE [3]: 298 u/L | CREATININE [3]: 0.1 mg/dL | GLUCOSE [3]: 159.67 mg/dL | LACTATE DEHYDROGENASE [3]: 103.33 u/L | LIPASE [3]: 9.33 u/L | PHOSPHORUS [3]: 9.4 mg/dL | POTASSIUM [3]: 5.18 MEQ/L | SODIUM [3]: 146.37 MEQ/L | TOTAL BILIRUBIN [3]: 0.23 mg/dL | TOTAL PROTEIN [3]: 5.77 G/DL | URIC ACID [3]: 0.43 mg/dL | ABSOLUTE BASOPHIL [4]: 0 CELLS/uL | ABSOLUTE EOSINOPHIL [4]: 25 CELLS/uL | ABSOLUTE LYMPHOCYTE [4]: 7680.33 CELLS/uL | ABSOLUTE MONOCYTE [4]: 0 CELLS/uL | ABSOLUTE SEGMENTED NEUTROPHIL [4]: 428 CELLS/uL | BASOPHIL [4]: 0% | EOSINOPHIL [4]: 0.33% | ERYTHROCYTE COUNT [4]: 5.2 x10E6/uL | HEMATOCRIT [4]: 33.33% | HEMOGLOBIN [4]: 13.23 G/DL | LEUKOCYTE COUNT [4]: 8.13 x10E3/uL | LYMPHOCYTE [4]: 94.33% | MEAN CORPUSCULAR HEMOGLOBIN [4]: 25.47 pg | MEAN CORPUSCULAR HEMOGLOBIN CONCENTRATION [4]: 39.7 G/DL | MEAN CORPUSCULAR VOLUME [4]: 64.1 fL | MONOCYTE [4]: 0% | NEUTROPHIL [4]: 5.33% | NUCLEATED RED BLOOD CELLS [4]: 0 /100WBC | PLATELET COUNT [4]: 1135 x10E3/uL | ALANINE AMINOTRANSFERASE [4]: 75.67 u/L | ALBUMIN [4]: 3.67 G/DL | ALKALINE PHOSPHATASE [4]: 483 u/L | ASPARTATE AMINOTRANSFERASE [4]: 105.33 u/L | BLOOD UREA NITROGEN [4]: 12.33 mg/dL | CARBON DIOXIDE [4]: 32 mmol/L | CHLORIDE [4]: 98.67 MEQ/L | CHOLESTEROL [4]: 57 mg/dL | CREATINE PHOSPHOKINASE [4]: 433.67 u/L | CREATININE [4]: 0.15 mg/dL | GLUCOSE [4]: 156.67 mg/dL | LACTATE DEHYDROGENASE [4]: 119.33 u/L | LIPASE [4]: 9 u/L | PHOSPHORUS [4]: 10.47 mg/dL | POTASSIUM [4]: 5.72 MEQ/L | SODIUM [4]: 143.43 MEQ/L | TOTAL BILIRUBIN [4]: 0.3 mg/dL | TOTAL PROTEIN [4]: 5.7 G/DL | URIC ACID [4]: 0.67 mg/dL
